Source: PMC10687071 (The Journal of Biological Chemistry, 2023)
Where a chain is given by its changes, count along the chain named. Values joined by “and” are separate entries in the source; they are usually repeats but may differ in a detail not shown here. Identical values can stand only once.

Legend:
[1] = can reach up; cited from earlier work
[2] = biological target: T1, F87G mutant EAG1 channels (Mus musculus, UniProt Q60603, F87G); test: TEVC recording, imipramine inhibition, F87G mutant; type: cell-based; details: F87G mutant EAG1 channel, +50 mV
T1 construct: expressed in transfected cells; host or cells: Xenopus laevis oocytes injected with cRNA
T1 sequence (Q60603 1-989 F87G): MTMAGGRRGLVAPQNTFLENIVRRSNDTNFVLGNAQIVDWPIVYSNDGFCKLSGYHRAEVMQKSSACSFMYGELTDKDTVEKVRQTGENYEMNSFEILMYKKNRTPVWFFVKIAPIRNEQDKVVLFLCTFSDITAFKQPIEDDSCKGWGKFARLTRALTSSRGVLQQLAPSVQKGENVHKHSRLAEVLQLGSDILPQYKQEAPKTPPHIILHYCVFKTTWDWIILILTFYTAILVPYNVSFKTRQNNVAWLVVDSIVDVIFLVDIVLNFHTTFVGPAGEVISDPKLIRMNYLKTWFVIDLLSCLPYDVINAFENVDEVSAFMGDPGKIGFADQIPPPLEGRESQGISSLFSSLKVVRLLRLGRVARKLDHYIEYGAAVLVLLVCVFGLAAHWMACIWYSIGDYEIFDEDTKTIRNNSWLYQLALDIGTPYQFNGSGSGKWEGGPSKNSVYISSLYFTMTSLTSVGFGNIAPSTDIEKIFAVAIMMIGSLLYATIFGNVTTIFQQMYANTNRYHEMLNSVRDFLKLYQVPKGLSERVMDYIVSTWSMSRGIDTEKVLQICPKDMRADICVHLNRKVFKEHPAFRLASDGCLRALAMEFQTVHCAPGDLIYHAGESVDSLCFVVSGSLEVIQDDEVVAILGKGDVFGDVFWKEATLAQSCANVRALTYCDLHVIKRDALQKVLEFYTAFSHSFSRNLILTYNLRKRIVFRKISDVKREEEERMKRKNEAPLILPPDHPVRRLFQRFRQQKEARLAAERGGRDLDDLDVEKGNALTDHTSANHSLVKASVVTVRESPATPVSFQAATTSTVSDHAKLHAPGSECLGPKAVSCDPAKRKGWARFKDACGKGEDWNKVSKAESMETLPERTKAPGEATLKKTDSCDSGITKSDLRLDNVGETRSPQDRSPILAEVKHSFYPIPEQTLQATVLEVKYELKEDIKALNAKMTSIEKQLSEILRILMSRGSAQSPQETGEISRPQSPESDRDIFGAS
From the text: (§1) The cDNA encoding wild-type (WT) mouse EAG1 channels in pGH19 vector was kindly provided by G. Robertson (University of Wisconsin-Madison, Madison, WI). The mutant ΔPAS EAG1 channel in pGH19 with the deletion of the PAS domain residues 2 to 130 was generated by Bio Basic Inc and verified by DNA sequencing (Genewiz). Mutant EAG1 channels with single amino acid substitutions were generated by Genewiz and verified by DNA sequencing. cRNA was transcribed using the T7 mMessage mMachine kit (Thermo Fisher Scientific). Defolliculated Xenopus laevis oocytes were purchased from Ecocyte Bioscience or Xenopus1 and injected with the cRNA using a Nanoinject II oocyte injector (Drummond).
(§2) For EAG1 current recordings, oocytes were placed into a handmade chamber containing a bath solution for the current recording. The currents were recorded using a TEVC technique with OC-725C amplifier (Warner Instruments) and pClamp11 software (Molecular Devices). The signals were digitized using Digidata 1550 (Molecular Devices). Patch pipettes were pulled from borosilicate glass and had resistances of 0.7 to 1.5 MΩ. The recording (bath) solution contained 96 mM NaCl, 4 mM KCl, 0.1 mM CaCl2, 1.8 mM MgCl2, and 5 mM HEPES, pH 7.5. The pipette solution contained 3 M KCl. […]

[3] = biological target: T2, F130G mutant EAG1 channels (Mus musculus, UniProt Q60603, F130G); test: TEVC recording, imipramine inhibition, F130G mutant; type: cell-based; details: F130G mutant EAG1 channel, +50 mV
T2 construct: expressed in transfected cells; host or cells: Xenopus laevis oocytes injected with cRNA
T2 sequence (Q60603 1-989 F130G): T1 sequence (Q60603 1-989 F87G) with G87F, F130G
From the text: as §1, §2

- IC50 [2]: 42.8 ± 0.6 µM
- IC50 [3]: 52.8 ± 5 µM
SMILES: CN(C)CCCN1c2ccccc2CCc2ccccc21 [imipramine]
- Plasma levels of imipramine observed in patients [1]: ≤ 300 ng/ml and ≤ 1 μM
